The text below walks through data of article PMC10631261 (Chemical Science, 2023).

Data set [1] deals with PHD2 (Homo sapiens, UniProt Q9GZT9). The data set can be described thus: biochemical. The procedure:
(§1) 3. Biochemical procedures
(§2) Protein production and purification
(§3) PAGE analysis) according to established procedures.
(§4) FIH, PHD2, AspH, JMJD5 and KDM4A inhibition assays
(§5) The in vitro FIH,1, 2 PHD2,1 AspH,38 JMJD536 and KDM4A39 inhibition assays were performed as […]
(§6) KDM4A). Synthetic peptide substrates were used: HIF-1α C-terminal transactivation domain fragment […]
(§7) H3Lys9 bearing three methyl groups at the N ϵ position, H3Lys4 substituted by an Ala and H3Lys14 substituted by an Ile residue) for KDM4A.39 Peptides were prepared as C-terminal amides by GL Biochem (Shanghai) Ltd. Peptide hydroxylation in the case of FIH, PHD2, AspH and JMJD5 (+16 Da mass shift) or peptide demethylation in the case of KDM4A ( -14 Da mass shift) was monitored by SPE-MS. […]

In data set [2] the target is AspH (Homo sapiens, UniProt Q12797). The data set can be described thus: biochemical.
Excerpt: (§8) To investigate the potential of BNS for selective FIH inhibition, its selectivity was investigated with respect to other 2OG-dependent protein oxidising enzymes, that is PHD2, Jumonji-C domain-containing protein 5 (JMJD5), aspartate/asparagine-β-hydroxylase (AspH) and KDM4A, using reported SPE-MS inhibition assays.[58,61,69,70] In addition to PHD2 and KDM4A, we included AspH and JMJD5 in our selectivity studies, because AspH, like FIH, catalyses protein aspartate- and asparagine-residue hydroxylation (although in epidermal growth factor-like domains),[71,72] and because JMJD5 is structurally closely related to FIH.[73,74]
as §1, §2, §3, §4, §5, §6, §7

Data set [3] has as its target JMJD5 (Homo sapiens, UniProt Q8N371). The data set can be described thus: biochemical. To be noted: read-out: JMJD5 IC50.
Excerpt: as §8, §1, §2, §3, §4, §5, §6, §7

Data set [4] concerns the target T1, FIH (Homo sapiens, UniProt Q9NWT6).
T1 construct: made in house
The data set can be described thus: SPE-MS FIH inhibition assay. It is filed as biochemical. The procedure:
as §2, §3, §4, §5, §6, §7

Data set [5] concerns the target KDM4A (Homo sapiens, UniProt O75164). The data set is described as follows: biochemical. It is filed as biochemical.
Excerpt: as §8, §1, §2, §3, §4, §5, §6, §7

PHD2, sequence (Q9GZT9 181-426): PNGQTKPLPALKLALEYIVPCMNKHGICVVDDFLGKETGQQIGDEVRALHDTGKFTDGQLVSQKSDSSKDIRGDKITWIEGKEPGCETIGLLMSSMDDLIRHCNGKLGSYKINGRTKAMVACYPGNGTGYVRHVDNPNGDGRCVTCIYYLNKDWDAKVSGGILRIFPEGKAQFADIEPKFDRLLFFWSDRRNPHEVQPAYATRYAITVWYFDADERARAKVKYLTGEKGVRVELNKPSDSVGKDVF
AspH, sequence (Q12797 315-758): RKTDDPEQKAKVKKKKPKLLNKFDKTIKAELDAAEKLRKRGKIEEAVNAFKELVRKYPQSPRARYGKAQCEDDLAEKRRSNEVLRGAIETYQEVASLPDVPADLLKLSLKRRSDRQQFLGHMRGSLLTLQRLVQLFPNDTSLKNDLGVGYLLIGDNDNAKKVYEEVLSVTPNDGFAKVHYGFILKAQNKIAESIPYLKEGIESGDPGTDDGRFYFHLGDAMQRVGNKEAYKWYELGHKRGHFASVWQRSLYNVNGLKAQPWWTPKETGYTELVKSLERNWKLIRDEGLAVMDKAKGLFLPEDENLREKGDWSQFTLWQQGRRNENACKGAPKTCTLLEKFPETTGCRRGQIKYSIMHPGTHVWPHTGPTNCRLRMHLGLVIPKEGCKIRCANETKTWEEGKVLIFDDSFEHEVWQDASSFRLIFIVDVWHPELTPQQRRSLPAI
JMJD5, sequence (Q8N371 whole entry): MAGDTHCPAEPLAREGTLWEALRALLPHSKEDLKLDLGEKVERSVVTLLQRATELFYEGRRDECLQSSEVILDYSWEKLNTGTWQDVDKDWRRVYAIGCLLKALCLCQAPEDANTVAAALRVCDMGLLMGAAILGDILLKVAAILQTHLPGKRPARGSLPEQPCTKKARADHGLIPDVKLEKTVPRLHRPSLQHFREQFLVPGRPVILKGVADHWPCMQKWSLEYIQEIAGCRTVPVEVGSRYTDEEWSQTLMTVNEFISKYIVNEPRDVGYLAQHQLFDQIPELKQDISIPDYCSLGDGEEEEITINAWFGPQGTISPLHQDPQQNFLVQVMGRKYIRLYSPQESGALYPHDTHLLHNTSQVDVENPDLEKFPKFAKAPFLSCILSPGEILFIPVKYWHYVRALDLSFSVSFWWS
T1 sequence (Q9NWT6 whole entry): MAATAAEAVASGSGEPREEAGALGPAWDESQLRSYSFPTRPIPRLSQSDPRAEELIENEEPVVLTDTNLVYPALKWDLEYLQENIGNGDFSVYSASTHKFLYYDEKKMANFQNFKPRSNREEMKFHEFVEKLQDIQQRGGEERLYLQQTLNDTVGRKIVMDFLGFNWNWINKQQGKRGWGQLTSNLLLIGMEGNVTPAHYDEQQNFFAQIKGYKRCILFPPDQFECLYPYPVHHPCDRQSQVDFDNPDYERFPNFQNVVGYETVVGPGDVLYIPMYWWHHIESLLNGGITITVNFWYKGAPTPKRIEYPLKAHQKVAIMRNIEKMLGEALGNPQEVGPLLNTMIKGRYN
KDM4A, sequence (O75164 1-359): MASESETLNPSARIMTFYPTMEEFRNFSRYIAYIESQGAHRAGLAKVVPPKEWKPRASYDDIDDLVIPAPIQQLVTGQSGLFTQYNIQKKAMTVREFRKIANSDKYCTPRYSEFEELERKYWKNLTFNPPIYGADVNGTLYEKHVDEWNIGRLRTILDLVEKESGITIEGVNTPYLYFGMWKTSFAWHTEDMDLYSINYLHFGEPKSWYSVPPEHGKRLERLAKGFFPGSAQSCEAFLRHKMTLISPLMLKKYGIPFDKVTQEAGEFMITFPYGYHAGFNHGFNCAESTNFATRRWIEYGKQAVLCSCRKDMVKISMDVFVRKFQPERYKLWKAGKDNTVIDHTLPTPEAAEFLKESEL

The molecule `O=C(O)Cc1csc(=NC(=O)C2CCN(S(=O)(=O)c3ccc(Cl)cc3)C2)n1O` (stereo not shown) (hydrate or solvate) [compound 35] showed a melting point of 195 to 197 °C.

In turn, `Cc1s/c(=N\C(=O)CS(=O)(=O)c2ccccc2)n(O)c1CC(=O)O` (hydrate or solvate) [compound 7] yielded a melting point of 181 to 182 °C.

In turn, `CC1(C(=O)/N=c2\scc(CC(=O)O)n2O)CCN(S(=O)(=O)c2ccccc2)C1` (stereo not shown) (hydrate or solvate) [compound 29] showed a melting point of 158 to 161 °C.

With `O=C(O)Cc1cs/c(=N\C(=O)CNC(=O)c2ccccc2)n1O` (hydrate or solvate) [compound 16], the melting point lay within 181 to 183 °C.

With `COc1ccc(S(=O)(=O)N2CCC(C(=O)N=c3scc(CC(=O)O)n3O)C2)cc1` (stereo not shown) [compound 36], the IC50 in data set [1] was 9.8 ± 0.5 µM; in data set [2], 36.6 ± 2.8 µM; in data set [3], 16 ± 6.8 µM; in data set [4] it was 460 ± 10 nM; in data set [5], over 100 µM.

With `O=C(O)Cc1cs/c(=N\C(=O)CCC(=O)Nc2ccccc2)n1O` [compound 18], the IC50 is 2.3 ± 0.1 µM in data set [1]; 3.7 ± 1.5 µM in data set [2]; 8.4 ± 2.7 µM in data set [3]; 6000 ± 1200 nM in data set [4]; over 100 µM in data set [5].

The molecule `O=C(O)Cc1csc(=NC(=O)C2CCN(S(=O)(=O)c3cccc(Cl)c3)C2)n1O` (stereo not shown) (hydrate or solvate) [compound 34] registered a melting point of 178 to 182 °C.

As for `O=C(O)Cc1cs/c(=N\C(=O)CCNS(=O)(=O)c2ccccc2)n1O` (hydrate or solvate) [compound 20], the melting point fell in the range of 178 to 180 °C.

On to `O=C(O)Cc1csc(=NC(=O)C2CCN(S(=O)(=O)c3ccccc3Cl)C2)n1O` (stereo not shown) [compound 33], for which the IC50 in data set [1] was 8 ± 0.2 µM; in data set [2], 30.3 ± 12.6 µM; in data set [3], 11.9 ± 1.8 µM; in data set [4], 390 ± 40 nM; in data set [5], over 100 µM.

`O=C(O)Cc1csc(=NC(=O)C2CCN(S(=O)(=O)c3cccs3)C2)n1O` (stereo not shown) [compound 41]: the IC50 in data set [1] is 11.2 ± 2.3 µM; in data set [2] it was 30.3 ± 8 µM; in data set [3] it was 15.4 ± 7.1 µM; in data set [4], 470 ± 70 nM; in data set [5], over 100 µM.

Consider `CC1(C(=O)/N=c2\scc(CC(=O)O)n2O)CCN(S(=O)(=O)c2ccccc2)C1` (stereo not shown) [compound 29], for which the IC50 in data set [1] is over 100 µM; in data set [2], over 100 µM; in data set [3], over 100 µM; in data set [4], over 100000 nM; in data set [5], over 100 µM.

On to `O=C(O)Cc1csc(=NC(=O)C2CCN(S(=O)(=O)c3ccc4ccccc4c3)C2)n1O` (stereo not shown) (hydrate or solvate) [compound 40], for which the melting point lay within 181 to 184 °C.

Regarding `O=C(CS(=O)(=O)c1ccccc1)/N=c1\scc(Cn2ccnn2)n1O` [compound 12], the IC50 was over 100 µM in data set [1]; 83.3 ± 6.7 µM in data set [2]; over 100 µM in data set [3]; over 100000 nM in data set [4]; over 100 µM in data set [5].

In turn, `O=C(O)Cc1csc(=NC(=O)C2CCN(S(=O)(=O)c3cccs3)C2)n1O` (stereo not shown) (hydrate or solvate) [compound 41] showed a melting point of 178 to 180 °C.

Consider `COc1ccc(S(=O)(=O)N2CCC(C(=O)N=c3scc(CC(=O)O)n3O)C2)cc1` (stereo not shown) (hydrate or solvate) [compound 36], for which the melting point is 180 to 183 °C.

As to `O=C(O)Cc1cs/c(=N\C(=O)C2CCCN2S(=O)(=O)c2ccccc2)n1O` (stereo not shown) (hydrate or solvate) [compound 28], the melting point is > 190 °C (dec.).

For the molecule `CNC(=O)Cc1cs/c(=N\C(=O)CS(=O)(=O)c2ccccc2)n1O` [compound 10], the IC50 in data set [1] was over 100 µM; in data set [2] it was 43.6 ± 3.7 µM; in data set [3], 77.5 ± 23.8 µM; in data set [4], over 100000 nM; in data set [5] it was over 100 µM.

On to `O=C(O)Cc1csc(=NC(=O)C2CCN(S(=O)(=O)c3ccc4ccccc4c3)C2)n1O` (stereo not shown) [compound 40], for which the IC50 in data set [1] was 5.2 ± 1.1 µM; in data set [2], 40.1 ± 2.2 µM; in data set [3], 62.8 ± 0.4 µM; in data set [4], 450 ± 80 nM; in data set [5] it was over 100 µM.

With `COC(=O)Cc1cs/c(=N\C(=O)CS(=O)(=O)c2ccccc2)n1O` [compound 9], the IC50 in data set [1] was over 100 µM; in data set [2], 96.7 ± 3.2 µM; in data set [3], over 100 µM; in data set [4], over 100000 nM; in data set [5], over 100 µM.

Take `CC(C(=O)O)c1cs/c(=N\C(=O)CS(=O)(=O)c2ccccc2)n1O` (stereo not shown) (hydrate or solvate) [compound 6]: the melting point was 204 to 207 °C.

For `C[C@@H]1CN(S(=O)(=O)c2ccccc2)C[C@H]1C(=O)/N=c1\scc(CC(=O)O)n1O` (relative stereo) [compound 30], the IC50 was 71.7 ± 26.6 µM in data set [1]; over 100 µM in data set [2]; 25.6 ± 0.6 µM in data set [3]; 1700 ± 400 nM in data set [4]; over 100 µM in data set [5].

For the molecule `O=C(O)Cc1cs/c(=N\C(=O)CCS(=O)(=O)c2ccccc2)n1O` (hydrate or solvate) [compound 15], the melting point was in the range of 182 to 184 °C.

Turning to `CCOC(=O)Cc1cs/c(=N\C(=O)CS(=O)(=O)c2ccccc2)n1O` [compound 3], the IC50 in data set [1] was over 100 µM; in data set [2], 68 ± 26.8 µM; in data set [3] it was over 100 µM; in data set [4], over 100000 nM; in data set [5] it was over 100 µM.

The molecule `O=C(O)CCc1cs/c(=N\C(=O)CS(=O)(=O)c2ccccc2)n1O` (hydrate or solvate) [compound 13] gave a melting point of 173 to 176 °C.

With `O=C(O)Cc1cs/c(=N\C(=O)CCNS(=O)(=O)c2ccccc2)n1O` [compound 20], the IC50 in data set [1] is 6.5 ± 1.8 µM; in data set [2], 23.3 ± 10.1 µM; in data set [3] it was 13.4 ± 6.5 µM; in data set [4], 1000 ± 100 nM; in data set [5], over 100 µM. In data set [4] (IC50 comparison with compound 4), the “reduction of FIH inhibition compared to 4” value is about 3 fold. Further, the “selectivity for FIH inhibition over JMJD5 inhibition” value in data set [4] (as judged by IC50 values) was about 13 fold. Also, the “selectivity for FIH inhibition over PHD2 inhibition” value in data set [4] (as judged by IC50 values) is about 6 fold.

`O=C(O)Cc1cs/c(=N\C(=O)CS(=O)(=O)c2ccccc2)n1O` (hydrate or solvate) [compound 4] came in with a melting point of 179 to 181 °C.

As for `O=C(O)Cc1csc(=NC(=O)C2CCN(S(=O)(=O)c3ccc(Cl)cc3)C2)n1O` (stereo not shown) [compound 35], the IC50 was 9.2 ± 0.4 µM in data set [1]; 28.8 ± 8.9 µM in data set [2]; 37.7 ± 0.9 µM in data set [3]; 460 ± 10 nM in data set [4]; over 100 µM in data set [5].

Regarding `O=C(O)Cc1csc(=NC(=O)C2CCN(S(=O)(=O)c3cccc(Cl)c3)C2)n1O` (stereo not shown) [compound 34], the IC50 is 14.6 ± 3.2 µM in data set [1]; 35 µM in data set [2]; 18.5 ± 1 µM in data set [3]; 440 ± 30 nM in data set [4]; over 100 µM in data set [5].

In the case of `O=C(O)Cc1csc(NC(=O)CS(=O)(=O)c2ccccc2)n1` [compound 5], the IC50 was over 100 µM in data set [1]; over 100 µM in data set [2]; over 100 µM in data set [3]; over 100000 nM in data set [4]; over 100 µM in data set [5].

Turning to `O=C(O)Cc1csc(=NC(=O)C2CCN(S(=O)(=O)c3ccc(C(F)(F)F)cc3)C2)n1O` (stereo not shown) [compound 37], the concentration for half-maximal inhibition (IC50) in data set [1] is 15.2 ± 3.6 µM; in data set [2], 36 ± 0.7 µM; in data set [3] it was 63.2 ± 6.1 µM; in data set [4], 470 ± 70 nM; in data set [5], over 100 µM.

Take `O=C(CS(=O)(=O)c1ccccc1)/N=c1\sccn1O` [compound 8]: the half-maximal inhibitory concentration (IC50) in data set [1] is over 100 µM; in data set [2], over 100 µM; in data set [3] it was over 100 µM; in data set [4] it was over 100000 nM; in data set [5], over 100 µM.

On to `N#CCc1cs/c(=N\C(=O)CS(=O)(=O)c2ccccc2)n1O` [compound 11], for which the IC50 in data set [1] was over 100 µM; in data set [2], over 100 µM; in data set [3], over 100 µM; in data set [4], over 100000 nM; in data set [5], over 100 µM.

On to `O=C(O)Cc1csc(=NC(=O)C2CCN(S(=O)(=O)c3ccc(C(F)(F)F)cc3)C2)n1O` (stereo not shown) (hydrate or solvate) [compound 37], for which the melting point is 183 to 185 °C.

With `O=C(O)Cc1cs/c(=N\C(=O)C2CCCN(S(=O)(=O)c3ccccc3)C2)n1O` (stereo not shown) [compound 27], the IC50 in data set [1] is 11 ± 1.6 µM; in data set [2], 49.1 ± 1.7 µM; in data set [3], 13.4 ± 1 µM; in data set [4] it was 870 ± 40 nM; in data set [5], over 100 µM.

Take `O=C(O)Cc1cs/c(=N\C(=O)CCS(=O)(=O)c2ccccc2)n1O` [compound 15]: the IC50 is 2.7 ± 0.2 µM in data set [1]; 33 ± 12.1 µM in data set [2]; 3.3 ± 1.5 µM in data set [3]; 300 ± 50 nM in data set [4]; over 100 µM in data set [5].

As a reminder, the melting point is the temperature, or range, at which the solid turns liquid. In general, IC50 refers to the concentration that gives 50% inhibition.
